Source: patent US20040038862A1, “Identification of new therapeutic targets for modulating bile acid synthesis” (priority 2003, published 2004)
Entries after “also recorded” stand apart in the source; their conditions may differ.

Columns and labels:
CYP7A expression [1] = test: CYP7A expression in primary human hepatocytes (Northern blot); format: cell-based; conditions: 48 hours; GW4064 0.1-10 μM, chenodeoxycholic acid 1-100 μM
Protocol: (§1) Primary human hepatocytes and rat hepatocytes (1.5×10^6 cells) were cultured on […]-coated six well plates in serum-free Williams' E medium supplemented with 100 nM dexamethasone, 100 U/ml penicillin G, 100 μg/ml streptomycin, and insulin-transferrin-selenium (ITS-G, Life Technologies, Inc., Gaithersburg, Md.). […] Control cultures received vehicle alone. Cells were cultured for a further 48 hours prior to harvest and total RNA isolated using a commercially available reagent (Trizol, Life Technologies Inc., Gaithersburg, Md.) according to the manufacturer's instructions. Total RNA (10 μg) was resolved on a 1% agarose/2.2 M formaldehyde denaturing gel and transferred to a nylon membrane (Hybond N+, Amersham Pharmacia Biotech Inc., Piscataway, N.J.). Blots were hybridized with ^32p-labeled cDNAs corresponding to human SHP-1, human CYP7A (bases 99 to 1564, GenBank M93133), mouse SHP-1 (bases 30 to 783, GenBank L76567), or rat CYP7A (bases 235 to 460, GenBank J05460). The SHP-1 cDNA used in these experiments encodes the full-length human SHP-1 protein (amino acids 1-260) as described in Seol et al. (1996 Science 272:1336), Subsequently, blots were stripped and reprobed with a radiolabeled -actin cDNA (Clontech, Palo Alto, Calif.).

SHP-1 expression [2] = test: SHP-1 expression in primary human hepatocytes (Northern blot); format: cell-based; conditions: 48 hours; GW4064 0.1-10 μM, chenodeoxycholic acid 1-100 μM
Protocol: Control cultures received vehicle alone. Cells were cultured for a further 48 hours prior to harvest and total RNA isolated using a commercially available reagent (Trizol, Life Technologies Inc., Gaithersburg, Md.) according to the manufacturer's instructions. Total RNA (10 μg) was resolved on a 1% agarose/2.2 M formaldehyde denaturing gel and transferred to a nylon membrane (Hybond N+, Amersham Pharmacia Biotech Inc., Piscataway, N.J.). Blots were hybridized with ^32p-labeled cDNAs corresponding to human SHP-1, human CYP7A (bases 99 to 1564, GenBank M93133), mouse SHP-1 (bases 30 to 783, GenBank L76567), or rat CYP7A (bases 235 to 460, GenBank J05460). The SHP-1 cDNA used in these experiments encodes the full-length human SHP-1 protein (amino acids 1-260) as described in Seol et al. (1996 Science 272:1336), Subsequently, blots were stripped and reprobed with a radiolabeled -actin cDNA (Clontech, Palo Alto, Calif.).

human SHP-1 promoter = test: SHP-1 promoter reporter in HepG2 cells transfected with FXR expression plasmid; format: cell-based
rodent FXR = biological target: T1, rodent FXR (Mus musculus, UniProt Q60641); test: FXR transactivation in transfected CV-1 cells, hsp70 ecdysone receptor response element reporter; format: cell-based
T1 construct: expressed in transfected cells; host or cells: CV-1
T1 sequence (Q60641 1-488): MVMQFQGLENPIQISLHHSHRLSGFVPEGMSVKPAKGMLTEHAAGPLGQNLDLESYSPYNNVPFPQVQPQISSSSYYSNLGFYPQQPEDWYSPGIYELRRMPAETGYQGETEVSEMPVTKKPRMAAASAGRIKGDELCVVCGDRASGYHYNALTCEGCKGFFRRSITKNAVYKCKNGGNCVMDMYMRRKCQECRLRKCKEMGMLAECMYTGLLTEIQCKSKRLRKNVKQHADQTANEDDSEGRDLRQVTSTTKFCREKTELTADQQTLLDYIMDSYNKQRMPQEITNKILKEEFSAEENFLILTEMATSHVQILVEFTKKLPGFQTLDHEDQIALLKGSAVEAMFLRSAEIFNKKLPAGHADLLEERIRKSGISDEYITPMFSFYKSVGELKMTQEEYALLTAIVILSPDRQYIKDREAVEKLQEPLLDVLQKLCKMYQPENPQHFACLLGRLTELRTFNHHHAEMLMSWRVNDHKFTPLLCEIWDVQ
Description: The full-length coding regions for human LRH-1 (GenBank AB019246) and human SHP-1 (GenBank L76571) were amplified by PCR and cloned into pSG5, creating pSG5-hLRH-1 and pSG5-hSHP-1, respectively. A consensus Kozak sequence was created during amplification. […] Underlined residues are those which have been mutated from the wild-type sequence. […] VP16-nuclear receptor chimeras contained the 80-amino acid herpes virus VP16 transactivation domain linked to the nuclear receptor ligand binding domain in a modified pSG5 expression vector.
Transient transfection of CV-1 cells was performed as described previously (Jones, S. A. et al. 2000. Mol. Endocrinol. 14:27-39). Typically, transfection mixes contained 2-5 ng receptor expression vector, 20 ng reporter construct, and 8 ng p -actin-SPAP. The amount of DNA used in each transfection was adjusted to 80 ng with carrier plasmid (pBluescript, Stratagene, La Jolla, Calif.). Cells were maintained for 24 hours in the presence of drug (added as a 1000× stock in dimethyl sulfoxide) in DMEM/F-12 nutrient mixture containing 10% charcoal-stripped, delipidated calf serum. An aliquot of medium was assayed for SPAP activity and the cells lysed prior to determination of luciferase expression. Luciferase activities were normalized to SPAP. […]

SHP-1 expression [3] = test: SHP-1 expression in primary rat hepatocytes (Northern blot); format: cell-based; conditions: 48 hours; GW4064 0.1-10 μM
Protocol: as §1

CYP7A expression [4] = test: Liver CYP7A expression in treated rats; format: in vivo, rat; conditions: 30 mg/kg by gavage twice a day for 7 days
Protocol: This decrease was still measurable despite the fact that the animals had been maintained on a normal light cycle and sacrificed during the daytime when CYP7A levels are known to be quite low.
(§2) Male Fisher rats were obtained from Charles River Laboratories Inc. (Raleigh, N.C.) and maintained on a 12 hour light/12 hour dark cycle. Animals were allowed food and chow ad libitum. […] Livers were excised and snap-frozen in liquid nitrogen. Differential gene expression analysis was performed by Curagen Corp. (New Haven, Conn.).

rat SHP-1 promoter = test: SHP-1 promoter reporter in HepG2 cells transfected with FXR expression plasmid; format: cell-based
SHP-1 expression [5] = test: Liver SHP-1 expression in treated rats; format: in vivo, rat; conditions: 30 mg/kg by gavage twice a day for 7 days
Protocol: Direct regulation of SHP-1 by FXR was confirmed in experiments in HepG2 cells transfected with an FXR expression plasmid and reporter plasmids under the control of either the rat or human SHP-1 promoter.
as §2

SMILES	CYP7A expression in human hepatocytes (CYP7A expression [1])	SHP-1 expression in human hepatocytes (SHP-1 expression [2])	reporter activity, human SHP-1 promoter (human SHP-1 promoter)	EC50 (rodent FXR) [µM]	SHP-1 expression in rat hepatocytes (SHP-1 expression [3])	CYP7A expression levels versus vehicle treated rats (CYP7A expression [4])	reporter activity, rat SHP-1 promoter (rat SHP-1 promoter)	SHP-1 expression in liver RNA versus vehicle-treated rats (SHP-1 expression [5])
C[C@H](CCC(=O)O)[C@H]1CC[C@H]2[C@@H]3[C@H](O)C[C@@H]4C[C@H](O)CC[C@]4(C)[C@H]3CC[C@]12C [chenodeoxycholic acid, reference compound]	repressed CYP7A expression at the same concentrations that were required for induction of SHP-1 expression	much less potent than GW4064	–	–	–	–	–	–
CC(C)c1onc(-c2c(Cl)cccc2Cl)c1COc1ccc(/C=C/c2cccc(C(=O)O)c2)c(Cl)c1 [GW4064]	decrease CYP7A expression in a dose dependent fashion; also recorded: repressed CYP7A expression at the same concentrations that were required for induction of SHP-1 expression	markedly increased SHP-1 expression in a dose-dependent manner	marked induction of reporter activity	0.08	markedly increased SHP-1 expression in a dose-dependent manner	decrease in CYP7A expression levels	marked induction of reporter activity	six-fold increase
